IC50, Activity and TGI data for 44 compounds are collected here from ChEMBL document CHEMBL5370655.

In general, IC50 refers to the midpoint of a concentration-inhibition curve. One may read the TGI as the reduction of tumour growth relative to the control group.

In test [1] the target is T1, Epidermal growth factor receptor (Homo sapiens, UniProt P00533, C797S/L858R/T790M).
The target of test [2] is Epidermal growth factor receptor (Homo sapiens, UniProt P00533).
Description: Inhibition of wild-type EGFR (unknown origin) using polyE4Y1 as substrate incubated for 5 mins with compound followed by substrate addition measured after 60 mins in presence of ATP by ADP-Glo reagent based assay
Test [3] addresses Epidermal growth factor receptor (Homo sapiens, UniProt P00533, C797S/EX19DEL/T790M).
For test [4], the target named is T1, Epidermal growth factor receptor. This is another data set of the same source.
The target in test [5] is Epidermal growth factor receptor (Homo sapiens, UniProt P00533, L858R).
Sequence of Epidermal growth factor receptor (Homo sapiens, UniProt P00533, L858R) (P00533 25-1210 L858R limits assumed): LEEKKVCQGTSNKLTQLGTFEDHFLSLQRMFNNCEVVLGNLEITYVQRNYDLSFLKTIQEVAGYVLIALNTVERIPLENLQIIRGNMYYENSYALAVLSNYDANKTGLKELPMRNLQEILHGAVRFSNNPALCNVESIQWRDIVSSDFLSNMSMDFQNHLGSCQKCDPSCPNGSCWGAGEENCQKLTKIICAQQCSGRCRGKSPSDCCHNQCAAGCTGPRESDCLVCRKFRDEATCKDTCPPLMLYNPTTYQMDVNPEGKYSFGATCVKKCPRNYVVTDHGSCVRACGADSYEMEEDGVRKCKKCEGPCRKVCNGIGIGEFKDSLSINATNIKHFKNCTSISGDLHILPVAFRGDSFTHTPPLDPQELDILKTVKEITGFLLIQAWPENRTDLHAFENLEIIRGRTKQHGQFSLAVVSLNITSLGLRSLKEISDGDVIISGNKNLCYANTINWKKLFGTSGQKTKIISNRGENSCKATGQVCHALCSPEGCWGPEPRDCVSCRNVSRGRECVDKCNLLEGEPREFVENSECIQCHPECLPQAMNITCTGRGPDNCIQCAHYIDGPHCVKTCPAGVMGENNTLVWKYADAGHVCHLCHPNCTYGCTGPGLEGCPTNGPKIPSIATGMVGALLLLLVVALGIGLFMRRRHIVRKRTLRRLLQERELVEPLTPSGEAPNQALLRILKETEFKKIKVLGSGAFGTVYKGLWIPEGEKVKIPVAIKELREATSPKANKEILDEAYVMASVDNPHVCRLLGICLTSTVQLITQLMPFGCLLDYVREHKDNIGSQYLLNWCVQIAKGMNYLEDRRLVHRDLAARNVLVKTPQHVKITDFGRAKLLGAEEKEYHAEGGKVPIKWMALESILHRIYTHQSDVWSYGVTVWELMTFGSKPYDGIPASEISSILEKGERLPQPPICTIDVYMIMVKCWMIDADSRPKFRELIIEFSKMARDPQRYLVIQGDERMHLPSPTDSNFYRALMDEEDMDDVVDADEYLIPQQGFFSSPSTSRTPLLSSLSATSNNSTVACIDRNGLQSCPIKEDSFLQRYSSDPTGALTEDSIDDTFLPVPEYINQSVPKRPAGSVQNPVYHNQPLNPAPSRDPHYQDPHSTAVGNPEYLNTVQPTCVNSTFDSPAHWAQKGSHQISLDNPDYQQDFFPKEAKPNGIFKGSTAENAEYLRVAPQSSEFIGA
In test [6] the target is Epidermal growth factor receptor (Homo sapiens, UniProt P00533, L858R/T790M). The experiment in a line: Inhibition of EGFR L858R/T790M double mutant (unknown origin) using polyE4Y1 as substrate incubated for 5 mins with compound followed by substrate addition measured after 60 mins in presence of ATP by ADP-Glo reagent based assay. A general note: ADP-Glo first removes unused ATP, then detects ADP through luciferase.
Sequence of Epidermal growth factor receptor (Homo sapiens, UniProt P00533, L858R/T790M) (P00533 25-1210 T790M/L858R limits assumed): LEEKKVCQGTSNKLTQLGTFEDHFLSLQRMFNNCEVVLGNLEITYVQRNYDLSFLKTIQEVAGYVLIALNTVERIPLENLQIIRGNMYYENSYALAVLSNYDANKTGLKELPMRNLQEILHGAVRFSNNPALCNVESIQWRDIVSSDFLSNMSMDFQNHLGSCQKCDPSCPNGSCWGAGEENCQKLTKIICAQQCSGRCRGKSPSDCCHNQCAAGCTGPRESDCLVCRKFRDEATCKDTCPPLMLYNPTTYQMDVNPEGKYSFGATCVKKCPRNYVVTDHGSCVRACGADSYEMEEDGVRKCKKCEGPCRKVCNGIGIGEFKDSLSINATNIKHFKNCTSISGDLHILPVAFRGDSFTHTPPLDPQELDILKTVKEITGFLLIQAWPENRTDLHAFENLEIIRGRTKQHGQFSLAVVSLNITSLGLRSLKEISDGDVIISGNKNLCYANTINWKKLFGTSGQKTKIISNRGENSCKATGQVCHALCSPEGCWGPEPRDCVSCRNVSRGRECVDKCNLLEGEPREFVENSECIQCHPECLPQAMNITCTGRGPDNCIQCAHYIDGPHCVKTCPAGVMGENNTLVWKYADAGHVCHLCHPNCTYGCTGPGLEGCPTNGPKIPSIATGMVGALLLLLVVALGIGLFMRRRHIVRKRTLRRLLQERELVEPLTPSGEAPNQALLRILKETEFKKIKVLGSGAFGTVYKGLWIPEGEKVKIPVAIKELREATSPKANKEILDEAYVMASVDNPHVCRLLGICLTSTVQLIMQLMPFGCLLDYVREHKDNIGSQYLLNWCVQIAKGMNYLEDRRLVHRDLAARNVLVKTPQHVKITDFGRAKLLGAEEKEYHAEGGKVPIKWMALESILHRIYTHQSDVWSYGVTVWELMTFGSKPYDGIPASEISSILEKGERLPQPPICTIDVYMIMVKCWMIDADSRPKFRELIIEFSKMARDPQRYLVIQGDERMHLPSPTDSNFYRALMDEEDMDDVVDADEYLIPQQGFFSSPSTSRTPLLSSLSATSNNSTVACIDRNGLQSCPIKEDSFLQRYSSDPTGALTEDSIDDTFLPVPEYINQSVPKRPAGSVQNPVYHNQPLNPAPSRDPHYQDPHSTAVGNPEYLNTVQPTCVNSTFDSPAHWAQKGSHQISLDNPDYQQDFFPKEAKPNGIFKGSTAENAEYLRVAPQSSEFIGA

For test [7], the system named is PC-9. The test can be described thus: Antiproliferative activity against human PC-9 cells assessed as inhibition of cell growth measured after 72 hrs by CCK8 assay. The format is functional, cell-based. The note with it: PC-9, 72 h. Background: Formazan colour is commonly taken as a measure of viable cells.
Test [8] concerns PC-9. The format is functional, cell-based. The note with it: Homo sapiens, PC-9, 72 h.
Test [9] has as its system NCI-H1975. The test can be described thus: Antiproliferative activity against human NCI-H1975 cells assessed as inhibition of cell growth measured after 72 hrs by CCK8 assay. It is filed as functional, cell-based. The following applies: NCI-H1975, 72 h.
Test [10] deals with A-431. The experiment in a line: Antiproliferative activity against human A-431 cells assessed as inhibition of cell growth measured after 72 hrs by CCK8 assay. It is filed as functional, cell-based. The following applies: A-431, 72 h.
A short description of test [11]: Induction of cell cycle arrest in human H1975-TM cells assessed as accumulation at S phase at 500 nM measured after 24 hrs by RNase A/propidium iodide staining based flow cytometric analysis (reference value: 18.1 %). The format is functional. On the technique in general: In flow cytometry, cells or beads pass a laser one at a time.
A short description of test [12]: Induction of apoptosis in human H1975-TM cells assessed as apoptotic cells at 500 nM measured after 24 by Annexin V-FITC and propidium iodide staining based flow cytometric analysis (reference value: 7.08 %). The format is functional. The following applies: time 24 hrs.
Test [13] in a line: Induction of cell cycle arrest in human H1975-TM cells assessed as accumulation at G0/G1 phase at 500 nM measured after 24 hrs by RNase A/propidium iodide staining based flow cytometric analysis (reference value: 64.3 %). It is filed as functional.
The nature of test [14]: Induction of cell cycle arrest in human H1975-TM cells assessed as accumulation at G2/M phase at 500 nM measured after 24 hrs by RNase A/propidium iodide staining based flow cytometric analysis (reference value: 17.6 %). The format is functional.
Test [15] in a line: Antitumor activity against human H1975-TM cells xenografted in BALB/c mouse assessed as tumor growth inhibition at 25 mg/kg, po measured after 25 days. It is filed as functional. The note with it: time 25 day.

T1 sequence (P00533 25-1210 T790M/C797S/L858R limits assumed): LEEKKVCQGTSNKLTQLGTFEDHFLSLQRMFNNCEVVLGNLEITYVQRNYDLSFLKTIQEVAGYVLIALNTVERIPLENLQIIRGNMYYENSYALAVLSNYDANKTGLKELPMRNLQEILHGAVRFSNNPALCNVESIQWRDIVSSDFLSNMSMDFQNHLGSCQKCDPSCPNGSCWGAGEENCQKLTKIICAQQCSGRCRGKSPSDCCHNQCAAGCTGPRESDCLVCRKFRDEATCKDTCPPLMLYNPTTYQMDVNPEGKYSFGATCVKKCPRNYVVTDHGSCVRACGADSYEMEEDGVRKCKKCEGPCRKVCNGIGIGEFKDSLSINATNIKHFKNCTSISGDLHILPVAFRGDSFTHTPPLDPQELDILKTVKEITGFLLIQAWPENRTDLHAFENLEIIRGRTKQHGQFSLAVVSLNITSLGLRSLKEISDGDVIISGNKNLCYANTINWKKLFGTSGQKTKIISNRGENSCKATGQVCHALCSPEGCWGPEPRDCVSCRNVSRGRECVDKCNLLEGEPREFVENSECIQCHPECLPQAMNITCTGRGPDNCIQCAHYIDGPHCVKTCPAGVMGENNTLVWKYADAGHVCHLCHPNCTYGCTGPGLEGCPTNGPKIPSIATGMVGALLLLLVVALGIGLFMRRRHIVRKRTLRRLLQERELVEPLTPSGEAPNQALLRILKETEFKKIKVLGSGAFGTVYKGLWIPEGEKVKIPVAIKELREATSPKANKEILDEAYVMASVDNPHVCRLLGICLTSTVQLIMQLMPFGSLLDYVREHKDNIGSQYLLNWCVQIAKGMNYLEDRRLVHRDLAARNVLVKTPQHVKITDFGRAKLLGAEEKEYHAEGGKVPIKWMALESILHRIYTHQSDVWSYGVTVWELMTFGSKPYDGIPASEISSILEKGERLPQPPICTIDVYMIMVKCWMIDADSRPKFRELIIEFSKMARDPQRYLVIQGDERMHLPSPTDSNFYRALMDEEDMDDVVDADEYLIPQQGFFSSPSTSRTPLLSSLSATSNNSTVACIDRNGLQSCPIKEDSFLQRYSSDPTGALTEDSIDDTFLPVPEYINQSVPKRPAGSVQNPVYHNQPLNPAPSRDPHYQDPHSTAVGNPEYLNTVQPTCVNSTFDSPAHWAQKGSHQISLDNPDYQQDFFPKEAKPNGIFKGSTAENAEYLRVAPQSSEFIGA
Sequence of Epidermal growth factor receptor (Homo sapiens, UniProt P00533) (P00533 whole entry): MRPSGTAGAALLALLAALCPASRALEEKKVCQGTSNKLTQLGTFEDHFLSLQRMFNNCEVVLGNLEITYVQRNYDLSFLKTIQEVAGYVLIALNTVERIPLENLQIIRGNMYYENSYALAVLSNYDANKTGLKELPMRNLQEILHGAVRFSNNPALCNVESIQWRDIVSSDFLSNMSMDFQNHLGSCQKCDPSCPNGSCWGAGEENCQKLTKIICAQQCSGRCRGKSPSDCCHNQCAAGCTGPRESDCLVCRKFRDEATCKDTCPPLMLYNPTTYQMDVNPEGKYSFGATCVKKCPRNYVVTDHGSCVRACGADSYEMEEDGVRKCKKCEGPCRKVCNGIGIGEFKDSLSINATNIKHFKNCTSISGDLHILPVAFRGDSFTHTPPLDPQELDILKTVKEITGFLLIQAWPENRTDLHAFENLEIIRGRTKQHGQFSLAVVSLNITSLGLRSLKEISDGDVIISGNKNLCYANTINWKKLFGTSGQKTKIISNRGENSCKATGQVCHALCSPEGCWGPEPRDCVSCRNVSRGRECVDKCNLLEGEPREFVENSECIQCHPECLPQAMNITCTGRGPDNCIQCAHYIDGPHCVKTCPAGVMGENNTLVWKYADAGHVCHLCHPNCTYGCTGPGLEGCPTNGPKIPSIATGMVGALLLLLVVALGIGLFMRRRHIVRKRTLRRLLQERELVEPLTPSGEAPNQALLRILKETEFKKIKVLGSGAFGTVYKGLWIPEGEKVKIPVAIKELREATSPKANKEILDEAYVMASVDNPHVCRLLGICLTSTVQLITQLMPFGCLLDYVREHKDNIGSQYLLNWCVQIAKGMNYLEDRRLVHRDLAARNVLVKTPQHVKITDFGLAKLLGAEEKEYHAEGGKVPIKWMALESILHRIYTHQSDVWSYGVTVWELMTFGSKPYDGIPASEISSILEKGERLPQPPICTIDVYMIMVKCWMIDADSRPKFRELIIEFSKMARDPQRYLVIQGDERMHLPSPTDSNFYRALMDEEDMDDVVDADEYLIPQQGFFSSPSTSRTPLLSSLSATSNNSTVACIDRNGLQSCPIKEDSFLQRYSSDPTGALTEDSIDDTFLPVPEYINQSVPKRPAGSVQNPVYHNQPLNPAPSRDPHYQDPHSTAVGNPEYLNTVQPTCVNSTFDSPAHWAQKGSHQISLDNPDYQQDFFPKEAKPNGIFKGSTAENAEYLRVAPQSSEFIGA

`CC(C)c1nc(-c2ccc(F)cc2)c(-c2ccnc(Nc3ccc4c(ccn4CCN(C)C)c3)n2)s1` returned an IC50 in test [1] of 0.02 µM. Compound `CN(C)CCn1ccc2cc(Nc3nccc(-n4ccnc4-c4ccc(F)cc4)n3)ccc21` gave an IC50 in [1] of 0.017 µM.

For the compound `CN(C)CCn1ccc2cc(Nc3nccc(-c4sc(N5CCOCC5)nc4-c4ccc(F)cc4)n3)ccc21`, the IC50 in test [1] came out at 0.026 µM. The compound `CN(C)CCn1ccc2cc(Nc3nccc(-c4sc(NS(=O)(=O)c5ccc(F)cc5)nc4-c4ccc(F)cc4)n3)ccc21` registered an IC50 in test [1] of 0.015 µM. `CCS(=O)(=O)N1CCC(c2nc(-c3ccc(F)cc3)c(-c3ccnc(Nc4ccc(N5CCOCC5)c(F)c4)n3)s2)CC1` registered an IC50 in [1] of 0.077 µM. Take `COc1cc(N2CCC(N3CCN(C)CC3)CC2)c(C)cc1Nc1nccc(-n2ccnc2-c2ccc(F)cc2)n1`: in test [1], the IC50 was determined as 0.028 µM.

`CCS(=O)(=O)N1CCC(c2nc(-c3ccc(F)cc3)c(-c3ccnc(Nc4ccc(N5CCN(C)CC5)cc4)n3)s2)CC1`: the IC50 was determined as 0.052 µM in [2]; 0.03 µM in test [3]; 0.166 µM in test [4]; 0.0024 µM in [5]; 0.018 µM in test [1]; 0.008 µM in test [6]. For the same compound, the IC50 was 0.006 µM in test [7], 0.08 µM in test [8], 0.19 µM in test [9] and 1.2 µM in [10]. For the compound `CCS(=O)(=O)Nc1nc(-c2ccc(F)cc2)c(-c2ccnc(Nc3ccc(N4CCN(C)CC4)cc3)n2)s1`, in test [1], the midpoint of inhibition, the IC50, lay at 0.0018 µM.

In [1], `CCS(=O)(=O)Nc1nc(-c2ccc(F)cc2)c(-c2ccnc(Nc3ccc(N4CCN(C)CC4)c(C)c3)n2)s1` showed an IC50 of 0.0036 µM. `CCCCS(=O)(=O)Nc1nc(-c2ccc(F)cc2)c(-c2ccnc(Nc3ccc4c(ccn4CCN(C)C)c3)n2)s1`: it took 0.0043 µM to reach half-maximal inhibition in test [1] (IC50). Compound `CN(C)CCn1ccc2cc(Nc3nccc(-n4ccc(-c5ccc(F)cc5)n4)n3)ccc21` came in with an IC50 in [1] of 0.409 µM. In test [1], `CN(C)CCn1ccc2cc(Nc3nccc(-c4sc(NS(C)(=O)=O)nc4-c4ccc(F)cc4)n3)ccc21` came in with an IC50 of 0.0025 µM. Regarding `CN1CCN(c2ccc(Nc3nccc(-n4ccnc4-c4ccc(F)cc4)n3)cc2)CC1`, the IC50 in test [1] worked out at 0.063 µM.

The compound `CCS(=O)(=O)Nc1nc(-c2ccc(F)cc2)c(-c2ccnc(Nc3ccc(N4CCN(C(C)C)CC4)cc3)n2)s1` displayed an IC50 in test [1] of 0.0037 µM. On to `CCS(=O)(=O)Nc1nc(-c2ccc(F)cc2)c(-c2ccnc(Nc3ccc(C4CCN(C)CC4)cc3)n2)s1`, for which the IC50 in test [1] is 0.0021 µM. Still for that read-out and setting: the figure for `CCS(=O)(=O)Nc1nc(-c2ccc(F)cc2)c(-c2ccnc(Nc3ccc(N4CCOCC4)c(F)c3)n2)s1` is 0.0041 µM. For the compound `C=CC(=O)Nc1cc(Nc2nccc(-c3cn(C)c4ccccc34)n2)c(OC)cc1N(C)CCN(C)C` [OSIMERTINIB], the IC50 in [7] was 0.005 µM; in test [8], 2.2 µM; in [9] it was […]; in test [10], […]. For the compound `CCS(=O)(=O)N1CCC(c2nc(-c3ccc(F)cc3)c(-c3ccnc(Nc4ccc(N5CCOCC5)cc4)n3)s2)CC1`, half-maximal inhibition in test [1] (IC50) was put at 0.058 µM. `COc1cc(N2CCC(N3CCN(C)CC3)CC2)ccc1Nc1ncc(Cl)c(Nc2ccccc2P(C)(C)=O)n1` [BRIGATINIB]: the Activity in test [11] was found to be 10.5%; in [12], 11.58%; in [13], 78.4%; in test [14], 11.1%. In addition, the IC50 in test [7] was 0.087 µM; in test [8], 0.39 µM; in test [9], 0.32 µM; in test [10], 0.51 µM. For the same compound, the TGI in [15] amounted to 59.8%. For the compound `COc1ccc(-c2nccn2-c2ccnc(Nc3ccc4c(ccn4CCN(C)C)c3)n2)cc1`, it took 0.289 µM to reach half-maximal inhibition in test [1] (IC50). The compound `CCS(=O)(=O)N1CCC(c2nc(-c3ccc(F)cc3)c(-c3ccnc(Nc4ccc(N5CCOCC5)cc4OC)n3)s2)CC1` showed an IC50 in test [1] of 0.071 µM. Consider `CN(C)CCn1ccc2cc(Nc3nccc(-c4sc(N)nc4-c4ccc(F)cc4)n3)ccc21`, for which, in test [1], the IC50 was found to be 0.0021 µM. In the case of `Cc1nc(-c2ccc(F)cc2)c(-c2ccnc(Nc3ccc4c(ccn4CCN(C)C)c3)n2)s1`, the IC50 in [1] is 0.011 µM. `CCS(=O)(=O)Nc1nc(-c2ccc(F)cc2)c(-c2ccnc(Nc3ccc4c(ccn4CCN4CCOCC4)c3)n2)s1` showed an IC50 in test [1] of 0.0063 µM. `CCS(=O)(=O)Nc1nc(-c2ccc(F)cc2)c(-c2ccnc(Nc3ccc4c(ccn4CCN(C)C)c3)n2)s1`: the IC50 in test [1] is 0.0009 µM. Regarding `CNc1nc(-c2ccc(F)cc2)c(-c2ccnc(Nc3ccc4c(ccn4CCN(C)C)c3)n2)s1`, the IC50 in [1] came to 0.019 µM. As for `CCS(=O)(=O)N1CCC(c2nc(-c3ccc(F)cc3)c(-c3ccnc(Nc4ccc(N5CCN(C)CC5)c(C)c4)n3)s2)CC1`, the IC50 worked out at 0.067 µM in test [2]; 0.07 µM in [3]; 0.289 µM in [4]; 0.0058 µM in [5]; 0.036 µM in test [1]; 0.017 µM in [6]. The IC50 in [7] was 0.035 µM; in test [8], 0.04 µM; in [9], 0.1 µM; in test [10], 0.61 µM. The compound `CCS(=O)(=O)N1CCC(c2nc(-c3ccc(F)cc3)c(-c3ccnc(Nc4ccc5c(ccn5CCN5CCOCC5)c4)n3)s2)CC1` displayed an IC50 in [1] of 0.071 µM. Regarding `COc1cc(N2CCN(C)CC2)ccc1Nc1nccc(-n2ccnc2-c2ccc(F)cc2)n1`, in test [1], the IC50 was 0.127 µM. In test [1], `CCN(CC)CCn1ccc2cc(Nc3nccc(-c4sc(C5CCN(S(=O)(=O)CC)CC5)nc4-c4ccc(F)cc4)n3)ccc21` had an IC50 of 0.034 µM.

Compound `CCS(=O)(=O)Nc1nc(-c2ccc(F)cc2)c(-c2ccnc(Nc3ccc(N4CCOCC4)cc3)n2)s1` gave an IC50 in test [1] of 0.037 µM. As for `CN(C)CCn1ccc2cc(Nc3nccc(-n4ccnc4-c4cccc(F)c4)n3)ccc21`, the IC50 in test [1] was 0.09 µM.

In test [1], `CCS(=O)(=O)Nc1nc(-c2ccc(F)cc2)c(-c2ccnc(Nc3cc(-c4cnn(C)c4)c(N4CCOCC4)cc3OC)n2)s1` registered an IC50 of 0.0701 µM. Compound `CN(C)CCn1ccc2cc(Nc3nccc(-c4sc(NS(=O)(=O)C5CCCCC5)nc4-c4ccc(F)cc4)n3)ccc21` had an IC50 in test [1] of 0.02 µM. As for `CCS(=O)(=O)Nc1nc(-c2ccc(F)cc2)c(-c2ccnc(Nc3ccc(N4CCN(C)CC4)cc3OC)n2)s1`, half-maximal inhibition in [1] (IC50) required 0.0025 µM. `CN(C)CCn1ccc2cc(Nc3nccc(-n4ccnc4-c4ccc(Cl)cc4)n3)ccc21` had an IC50 in [1] of 0.086 µM. In turn, `CCN1CCN(c2ccc(Nc3nccc(-c4sc(NS(=O)(=O)CC)nc4-c4ccc(F)cc4)n3)cc2)CC1` gave an IC50 in test [1] of 0.0022 µM.

As for `CC(=O)Nc1nc(-c2ccc(F)cc2)c(-c2ccnc(Nc3ccc4c(ccn4CCN(C)C)c3)n2)s1`, the IC50 in [2] stood at 0.066 µM; in test [3], 0.014 µM; in [4], 0.159 µM; in [5] it was 0.0021 µM; in test [1], 0.0032 µM; in test [6], 0.0049 µM. Besides, the IC50 in test [7] stood at 0.02 µM; in test [8], 0.008 µM; in test [9], 0.34 µM; in test [10] it was 0.45 µM. In [1], `CCS(=O)(=O)N1CCC(c2nc(-c3ccc(F)cc3)c(-c3ccnc(Nc4ccc(N5CCN(C(C)C)CC5)cc4)n3)s2)CC1` showed an IC50 of 0.049 µM. Consider `CCS(=O)(=O)N1CCC(c2nc(-c3ccc(F)cc3)c(-c3ccnc(Nc4ccc(N5CCN(C)CC5)cc4OC)n3)s2)CC1`, for which, in test [1], the IC50 amounted to 0.071 µM. Regarding `CCN1CCN(c2ccc(Nc3nccc(-c4sc(C5CCN(S(=O)(=O)CC)CC5)nc4-c4ccc(F)cc4)n3)cc2)CC1`, it took 0.026 µM to reach half-maximal inhibition in test [1] (IC50). Compound `CCS(=O)(=O)N1CCC(c2nc(-c3ccc(F)cc3)c(-c3ccnc(Nc4ccc(C5CCN(C)CC5)cc4)n3)s2)CC1` yielded an IC50 in [1] of 0.015 µM. On to `CC(C)S(=O)(=O)Nc1nc(-c2ccc(F)cc2)c(-c2ccnc(Nc3ccc4c(ccn4CCN(C)C)c3)n2)s1`, for which the IC50 in [1] was found to be 0.0034 µM. As for `CN(C)CCn1ccc2cc(Nc3nccc(-n4ccnc4-c4ccc(C(F)(F)F)cc4)n3)ccc21`, the IC50 in [1] is above 1 µM.
